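1) Cells in 96-well plates. 2) Compound, 48 h, 5 concentrations. 3) Linear interpolation between surrounding doses. 4) Unreached endpoint = highest concentration. GI50 is the concentration that inhibits growth by half.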 Activity calls are given as the source filed them. No stated cut-off is given here; in the data, active = GI50 up to about 1.1 µM and inactive = higher.
Tests used:
Test in all cases: NCI tumour cell line growth inhibition, 48 h
[1] = test system: 786-0
[2] = test system: A498
[3] = test system: A549
[4] = test system: ACHN
[5] = test system: COLO 205
[6] = test system: HOP-92
[7] = test system: Hs-578T
[8] = test system: IGROV-1
[9] = test system: KM12
[10] = test system: NCI-H23
[11] = test system: NCI/ADR-RES
[12] = test system: OVCAR-5
[13] = test system: SN12C
[14] = test system: SNB-19
[15] = test system: UACC-257
[16] = test system: RXF 393

Measured: GI50

OCCSCC(O)Cn1cnc2c(O)nc(Nc3ccccc3)nc21 (stereo not drawn)
inactive: [1] > 100 µM | [2] > 100 µM | [3] > 100 µM | [4] > 100 µM | [5] > 100 µM | [6] > 100 µM | [7] > 100 µM | [8] > 100 µM | [9] > 100 µM | [10] > 100 µM | [11] > 100 µM | [12] > 100 µM | [13] > 100 µM | [14] > 100 µM | [15] > 100 µM

Oc1cc(-c2ccc(Cl)cc2)cn2c1nc1ccccc12
inactive: [1] 25.8 µM | [2] > 100 µM | [5] > 100 µM | [6] > 100 µM | [7] 36.6 µM | [8] 9.55 µM | [9] 5.47 µM | [10] > 100 µM | [11] > 100 µM | [16] > 100 µM | [13] > 100 µM | [14] 52.4 µM | [15] > 100 µM

Cc1ccc(Nc2n[nH]c(=S)s2)cc1
inactive: [1] > 100 µM | [2] > 100 µM | [3] > 100 µM | [4] > 100 µM | [5] > 100 µM | [6] > 100 µM | [7] > 100 µM | [9] 69 µM | [10] > 100 µM | [11] > 100 µM | [12] > 100 µM | [16] > 100 µM | [13] > 100 µM | [14] > 100 µM | [15] > 100 µM

CCOC(=O)C(SCCO)C(C(=O)OCC)n1ccc(N)nc1=O (stereo not drawn)
inactive: [1] > 100 µM | [2] > 100 µM | [3] > 100 µM | [4] > 100 µM | [5] > 100 µM | [6] > 100 µM | [7] > 100 µM | [8] > 100 µM | [9] > 100 µM | [10] > 100 µM | [11] > 100 µM | [12] > 100 µM | [13] > 100 µM | [14] > 100 µM | [15] > 100 µM

CCC1CCN=C(Cn2cc(C)c(=O)[nH]c2=O)N1 (stereo not drawn)
inactive: [1] > 100 µM | [2] > 100 µM | [3] > 100 µM | [4] > 100 µM | [5] > 100 µM | [6] > 100 µM | [7] > 100 µM | [8] > 100 µM | [10] > 100 µM | [11] > 100 µM | [12] > 100 µM | [16] > 100 µM | [13] > 100 µM | [14] > 100 µM | [15] > 100 µM

COc1cc(/C=C2/SC(c3ccccc3)N(c3ccccc3)C2=O)cc(OC)c1OC (stereo not drawn)
inactive: [1] > 100 µM | [2] > 100 µM | [3] > 100 µM | [4] 84.3 µM | [5] 36.9 µM | [6] > 100 µM | [7] > 100 µM | [9] 30.3 µM | [10] 42.5 µM | [11] 48.2 µM | [12] > 100 µM | [16] 23.7 µM | [13] > 100 µM | [14] > 100 µM | [15] 61.8 µM

N#C/N=C1/c2ccccc2/C(=N/C#N)c2cc(CO)ccc21
inactive: [1] 36.8 µM | [2] 23.5 µM | [3] 20.9 µM | [4] 24.7 µM | [6] 24.8 µM | [7] 69.2 µM | [8] 29.4 µM | [9] 31.8 µM | [10] 27.1 µM | [11] 28.5 µM | [12] 50.9 µM | [16] 27.6 µM | [13] 24.8 µM | [14] 51.8 µM | [15] 26.6 µM

Reference: ChEMBL document CHEMBL1201862, “PubChem BioAssay data set” (2004)
